Experimental data: patent publication US5409692A, “Glucosyltransferase inhibitors, as well as dental caries prevention methods and anticarious foods using the same” (priority 1990, dated 1995)
In brackets after ≈: the same amount, converted by molar mass.

Columns and labels:
glucosyltransferase [1] = assay: Glucosyltransferase inhibition activity (insoluble glucan, absorbance at 550 nm); type: biochemical, S. mutans MT8148; details: 0.15 ml of 2,000 ppm sample solution in 3 ml total volume; pH 6.0, 37° C., 3 hours; control water
Experimental: As an enzyme solution, was used an extract which was obtained by culturing S. mutans MT8148 strain on Todd-Hewitt medium and then extracting hyphae with 8M urea in accordance with the method proposed by Hamada et al. [S. Hamada et al., J. Gen. Microbiol., 35, 335- 344 (1999 )].
A reaction system was prepared by adding 0.15 ml of an aqueous solution of a sample, said solution having been prepared to contain the sample at the concentration of 2,000 ppm, the enzyme solution prepared from the S. mutans strain and water to 0.6 ml of 500 mM sodium phosphate buffer which had pH 6.0 and contained 5% of sucrose, 0.5% of dextran T10 and 0.5% of sodium azide. The water was added in an amount to give a total volume of 3 ml. They were reacted in a glass test tube. In the above measurement, the amount of the enzyme was set such that the absorbance at 550 nm became about 1.0 when reacted at 37° C. for 3 hours.
Resultant insoluble glucan was subjected to ultrasonic disintegration and the; absorbance (A) at 550 nm was measured. Using as control (B) the absorbance obtained from the use of water in place of the sample solution, the inhibition rate (%) was determined in accordance with the following calculation formula: [formula] (Measurement results )
The glucosyltransferase inhibition activities of the extracts of the various fermented tea leaves, said extracts having been obtained in Examples 1, 2 and 3, and of caffeine and catechins, which are representative components of tea leaves, were measured using the above reaction system.

glucosyltransferase [2] = assay: Anti-glucan formation test; type: biochemical, S. mutans MT8148; details: 0.3 ml of 10% sample solution in 3 ml; pH 6.0, 37° C., 3 hours; relative to sugar
Experimental: To a mixture consisting of 0.3 ml of a 10% sample solution, 0.3 ml of 1M sodium phosphate buffer-which had pH 6.0 and contained 1.0% of dextran T10 and 1.0% of sodium azide--and a glucosyltransferase enzyme solution, water was added in an amount to give a total volume of 3 ml so that a reaction system was prepared. They were reacted in a glass test tube.
Insoluble glucan thus formed was subjected to ultrasonic disintegration, and the absorbance (A) at 550 nm was measured.
As the glucosyltransferase enzyme solution, was used an extract which was obtained by culturing S. mutans MT8148 strain on Todd-Hewitt medium and then extracting hyphae with 8M urea in accordance with the method proposed by Hamada et al. [S. Hamada et al., J. Gen. Microbiol., 135, 335-344 (1989)].

[3] = Solubility in distilled water; type: physicochemical; details: for solubility: distilled water, water
Text: Sugar: Refined sugar (prime grade)
Palatinose: Crystalline palatinose

S. mutans MT8148 strain = assay: Anti-plaque test (in vitro plaque formation); type: cell-based; details: sample 5% in Dulbecco's modified Eagle's medium, 37° C., 1 day, anaerobic; Average ± S.D.; anticarious sugar of Example 10
Experimental: The test was carried out in the following manner. Culture media were prepared by adding the test samples at the concentration of 5% to Dulbecco's modified Eagle's medium, respectively. 6-ml Portions of the media were added to glass test tubes, respectively, to which S. mutans MT8148 strain was planted. After the cells were cultured at 37° C. for 1 day under anaerobic conditions, the amounts of plaque adhered on the walls of the respective test tubes were weighed.

Oc1cc(O)c2c(c1)O[C@H](c1cc(O)c(O)c(O)c1)[C@@H](O)C2 [Gallocatechin]
Inhibition rate, % (glucosyltransferase [1]): 15%

OC[C@H]1O[C@H](OC[C@H]2OC(O)(CO)[C@@H](O)[C@@H]2O)[C@H](O)[C@@H](O)[C@@H]1O (stereo partly shown) [Palatinose, palatinose]
Relative amount of formed glucan, % (glucosyltransferase [2]): 2%
Solubility (in words) [3]: low solubility especially at low temperatures
solubility ([3]; 10° C.): 210 mg/mL (≈ 614 mM)
solubility ([3]; 30° C.): 320 mg/mL (≈ 935 mM)
solubility ([3]; 50° C.): 440 mg/mL (≈ 1290 mM)
solubility ([3]; 70° C.): 580 mg/mL (≈ 1690 mM)
Amount of plaque formed (S. mutans MT8148 strain): 2.01 ± 0.22 mg

Oc1cc(O)c2c(c1)O[C@H](c1ccc(O)c(O)c1)[C@H](O)C2 [Epicatechin]
Inhibition rate, % (glucosyltransferase [1]): 14%

O=C(O[C@@H]1Cc2c(O)cc(O)cc2O[C@@H]1c1ccc(O)c(O)c1)c1cc(O)c(O)c(O)c1 [Epicatechin gallate]
Inhibition rate, % (glucosyltransferase [1]): 19%

Oc1cc(O)c2c(c1)O[C@H](c1cc(O)c(O)c(O)c1)[C@H](O)C2 [Epigallocatechin]
Inhibition rate, % (glucosyltransferase [1]): 11%

OC[C@H]1O[C@@](CO)(O[C@H]2O[C@H](CO)[C@@H](O)[C@H](O)[C@H]2O)[C@@H](O)[C@@H]1O [Sugar]
solubility ([3]; 10° C.): 630 mg/mL (≈ 1840 mM)
solubility ([3]; 30° C.): 680 mg/mL (≈ 1990 mM)
solubility ([3]; 50° C.): 720 mg/mL (≈ 2100 mM)
solubility ([3]; 70° C.): 740 mg/mL (≈ 2160 mM)

Oc1cc(O)c2c(c1)OC(c1ccc(O)c(O)c1)C(O)C2 (stereo not shown) [Catechin]
Inhibition rate, % (glucosyltransferase [1]): 13%
